Reference: patent US6864068B2, “Antifungal proteins” (Syngenta Limited, priority 1995, dated 2005)

System: F culmorum
Test: Specific antifungal activity of Rs-AFP2 isoforms in SMF− and SMF+ media
Type: cell-based
Design: IC50 SMF− / IC50 SMF+: unit not given here
Conditions: for RELATIVE SPECIFIC ACTIVITY (%) IN MEDIUM SMF+ / RELATIVE SPECIFIC ACTIVITY (%) IN MEDIUM SMF−: 1/IC50 of mutant divided by that of yRs-AFP2 x 100, 48 hour incubation, preliminary tests; for RELATIVE SPECIFIC ACTIVITY (%) IN MEDIUM SMF+: SMF with 1 mM CaCl2 and 50 mM KCl; for RELATIVE SPECIFIC ACTIVITY (%) IN MEDIUM SMF−: low ionic strength medium; for IC50 SMF+ / IC50 SMF−: 72 hours growth, triplicate; for IC50 SMF+: high salt medium (1 mM CaCl2, 50 mM KCl); for IC50 SMF− / effect of substitution on antifungal activity in SMF−, in words: low salt medium; for effect of substitution on antifungal activity in SMF+, in words / effect of substitution on antifungal activity in SMF−, in words: Table 2 tests; for effect of substitution on antifungal activity in SMF+, in words: high salt medium; for relative specific antifungal activity (1/IC50), FIG. 6, in words: medium SMF+, Rs-AFP2 set at 100
Procedure: For each isoform, two independent purifications were carried out and the antifungal activity was determined in duplicate using F culmorum as a test fungus in two different media: a low ionic strength medium called SMF-(Terras et al, 1992, J Biol Chem, 267:15301-15309) and the same medium supplemented with 1 mM CaCl2 and 50 mM KCl called SMF+. The presence of salts in the test medium, especially salts with divalent cations, reduces the specific activity of Rs-AFP2. Seed-purified as well as yeast-expressed wild type Rs-AFP2 served as a control in the assays.
The relative specific activity is expressed as the specific activity of the mutant divided by the specific activity of yRs-AFP2 and multiplied by 100. […] The specific activity was measured in medium SMF−and SMF+.
Deviations are given as standard error of the mean (sem) based on the triplicate experiments. In SMF−, the medium without added salts, most of the derivatives show no decrease or only a minor decrease in antifungal activity, while in SMF+, the medium with added salts, there is a significant decrease in antifungal activity for several Rs-AFP2 isoforms.

“yRs-AFP2/I26R (QKLCQRPSGTWSGVCGNNNACKNQCRRLEKARHGSCNYVFPAHKCICYFPC; listed as Raphanus sativus)” was tested, and the “RELATIVE SPECIFIC ACTIVITY (%) IN MEDIUM SMF+” value was 82%, the “RELATIVE SPECIFIC ACTIVITY (%) IN MEDIUM SMF−” value was 76% and the “IC50 SMF+” value was 9.6. The “IC50 SMF−” value was 7.2.
In the case of “yRs-AFP2/N37R (QKLCQRPSGTWSGVCGNNNACKNQCIRLEKARHGSCRYVFPAHKCICYFPC; listed as Raphanus sativus)”, the “RELATIVE SPECIFIC ACTIVITY (%) IN MEDIUM SMF+” value is reported as 80%, the “RELATIVE SPECIFIC ACTIVITY (%) IN MEDIUM SMF−” value is reported as 100% and the “IC50 SMF+” value is reported as 7.0. For the same substance, the “IC50 SMF−” value was 2.8.
With “yRs-AFP2/L28R (QKLCQRPSGTWSGVCGNNNACKNQCIRREKARHGSCNYVFPAHKCICYFPC; listed as Raphanus sativus)” the “RELATIVE SPECIFIC ACTIVITY (%) IN MEDIUM SMF−” value was 39%, the “IC50 SMF+” value was >100 and the “IC50 SMF−” value was 6.4.
With “yRs-AFP2/Q5M: yeast-expressed Rs-AFP2 isoform, position 5 glutamine to methionine (QKLCMRPSGTWSGVCGNNNACKNQCIRLEKARHGSCNYVFPAHKCICYFPC; listed as Raphanus sativus)” the “RELATIVE SPECIFIC ACTIVITY (%) IN MEDIUM SMF+” value was 100%, the “RELATIVE SPECIFIC ACTIVITY (%) IN MEDIUM SMF−” value was 100% and the “IC50 SMF+” value was 5.4. For the same substance, the “IC50 SMF−” value was 4.1, the “antifungal activity compared with yRs-AFP2, in words” value (Table 1 tests, SMF− and SMF+) was “maintain their antifungal activity” and the “effect of substitution on antifungal activity in SMF+, in words” value was “increased antifungal activity”. For the same substance, the “effect of substitution on antifungal activity in SMF−, in words” value was “little effect on the antifungal activity” and the “relative specific antifungal activity (1/IC50), FIG. 6, in words” value was “enhanced activity”.
With “yRs-AFP2/S12R (QKLCQRPSGTWRGVCGNNNACKNQCIRLEKARHGSCNYVFPAHKCICYFPC; listed as Raphanus sativus)” the “RELATIVE SPECIFIC ACTIVITY (%) IN MEDIUM SMF+” value was 31%, the “RELATIVE SPECIFIC ACTIVITY (%) IN MEDIUM SMF−” value was 67% and the “IC50 SMF+” value was 20.0. For the same substance, the “IC50 SMF−” value was 3.5.
“yRs-AFP2/A42R (QKLCQRPSGTWSGVCGNNNACKNQCIRLEKARHGSCNYVFPRHKCICYFPC; listed as Raphanus sativus)” was tested, and the “RELATIVE SPECIFIC ACTIVITY (%) IN MEDIUM SMF+” value was 26%, the “RELATIVE SPECIFIC ACTIVITY (%) IN MEDIUM SMF−” value was 44% and the “IC50 SMF+” value was 18.0. For the same substance, the “IC50 SMF−” value was 4.2.
“yRs-AFP2/P7R: yeast-expressed Rs-AFP2 isoform, P7 replaced by arginine (QKLCQRRSGTWSGVCGNNNACKNQCIRLEKARHGSCNYVFPAHKCICYFPC; listed as Raphanus sativus)” was tested, and the “RELATIVE SPECIFIC ACTIVITY (%) IN MEDIUM SMF+” value was 84%, the “RELATIVE SPECIFIC ACTIVITY (%) IN MEDIUM SMF−” value was 33% and the “IC50 SMF+” value was 8.8. For the same substance, the “IC50 SMF−” value was 6.8.
In the case of “yRs-AFP2/G16M (QKLCQRPSGTWSGVCMNNNACKNQCIRLEKARHGSCNYVFPAHKCICYFPC; listed as Raphanus sativus)”, the “RELATIVE SPECIFIC ACTIVITY (%) IN MEDIUM SMF+” value is reported as 114%, the “RELATIVE SPECIFIC ACTIVITY (%) IN MEDIUM SMF−” value is reported as 151% and the “IC50 SMF+” value is reported as 5.0. The “IC50 SMF−” value was 2.2, the “antifungal activity compared with yRs-AFP2 in high salt (SMF+), in words” value (Table 1 tests) was “not so significantly different in high salt” and the “antifungal activity compared with yRs-AFP2 in low salt (SMF−), in words” value (Table 1 tests) was “increased activity in low salt”. The “effect of substitution on antifungal activity in SMF+, in words” value was “increased antifungal activity”, the “effect of substitution on antifungal activity in SMF−, in words” value was “little effect on the antifungal activity” and the “relative specific antifungal activity (1/IC50), FIG. 6, in words” value was “enhanced activity”.
With “yRs-AFP2/Y38G (QKLCQRPSGTWSGVCGNNNACKNQCIRLEKARHGSCNGVFPAHKCICYFPC; listed as Raphanus sativus)” the “RELATIVE SPECIFIC ACTIVITY (%) IN MEDIUM SMF+” value was <4%, the “RELATIVE SPECIFIC ACTIVITY (%) IN MEDIUM SMF−” value was 30% and the “IC50 SMF+” value was >200. For the same substance, the “IC50 SMF−” value was 42.0.
In the case of “yRs-AFP2/P7-: yeast-expressed Rs-AFP2 isoform with proline deletion at position 7 (QKLCQRSGTWSGVCGNNNACKNQCIRLEKARHGSCNYVFPAHKCICYFPC; listed as Raphanus sativus)”, the “RELATIVE SPECIFIC ACTIVITY (%) IN MEDIUM SMF+” value is reported as 17% and the “RELATIVE SPECIFIC ACTIVITY (%) IN MEDIUM SMF−” value is reported as 8%.
In the case of “yRs-AFP2/W11S (QKLCQRPSGTSSGVCGNNNACKNQCIRLEKARHGSCNYVFPAHKCICYFPC; listed as Raphanus sativus)”, the “IC50 SMF+” value is reported as >100 and the “IC50 SMF−” value is reported as 16.0.
With “yRs-AFP2/A31W (QKLCQRPSGTWSGVCGNNNACKNQCIRLEKWRHGSCNYVFPAHKCICYFPC; listed as Raphanus sativus)” the “RELATIVE SPECIFIC ACTIVITY (%) IN MEDIUM SMF+” value was <5%, the “RELATIVE SPECIFIC ACTIVITY (%) IN MEDIUM SMF−” value was 15% and the “IC50 SMF+” value was >100. The “IC50 SMF−” value was 30.0.
With “yRs-AFP2/K44Q (QKLCQRPSGTWSGVCGNNNACKNQCIRLEKARHGSCNYVFPAHQCICYFPC; listed as Raphanus sativus)” the “RELATIVE SPECIFIC ACTIVITY (%) IN MEDIUM SMF+” value was 114% and the “RELATIVE SPECIFIC ACTIVITY (%) IN MEDIUM SMF−” value was 100%.
In the case of “yRs-AFP2/F40M (QKLCQRPSGTWSGVCGNNNACKNQCIRLEKARHGSCNYVMPAHKCICYFPC; listed as Raphanus sativus)”, the “RELATIVE SPECIFIC ACTIVITY (%) IN MEDIUM SMF+” value is reported as 23%, the “RELATIVE SPECIFIC ACTIVITY (%) IN MEDIUM SMF−” value is reported as 30% and the “IC50 SMF+” value is reported as 54.0. For the same substance, the “IC50 SMF−” value was 16.0.
“yRs-AFP2/T10G (QKLCQRPSGGWSGVCGNNNACKNQCIRLEKARHGSCNYVFPAHKCICYFPC; listed as Raphanus sativus)” was tested, and the “RELATIVE SPECIFIC ACTIVITY (%) IN MEDIUM SMF+” value was <16%, the “RELATIVE SPECIFIC ACTIVITY (%) IN MEDIUM SMF−” value was 30% and the “IC50 SMF+” value was >100. For the same substance, the “IC50 SMF−” value was 11.0.
With “yRs-AFP2/I46R (QKLCQRPSGTWSGVCGNNNACKNQCIRLEKARHGSCNYVFPAHKCRCYFPC; listed as Raphanus sativus)” the “RELATIVE SPECIFIC ACTIVITY (%) IN MEDIUM SMF−” value was 22%, the “IC50 SMF+” value was >40 and the “IC50 SMF−” value was 12.0.
With “yRs-AFP2/F49R (QKLCQRPSGTWSGVCGNNNACKNQCIRLEKARHGSCNYVFPAHKCICYRPC; listed as Raphanus sativus)” the “RELATIVE SPECIFIC ACTIVITY (%) IN MEDIUM SMF+” value was 22%, the “RELATIVE SPECIFIC ACTIVITY (%) IN MEDIUM SMF−” value was 18% and the “IC50 SMF+” value was 23.0. For the same substance, the “IC50 SMF−” value was 22.0.
“yRs-AFP2/H33A (QKLCQRPSGTWSGVCGNNNACKNQCIRLEKARAGSCNYVFPAHKCICYFPC; listed as Raphanus sativus)” was tested, and the “IC50 SMF+” value was >100 and the “IC50 SMF−” value was 32.0.
